Measured values taken from patent US20220016112A1, “DIHYDROQUINOXALINE AND DIHYDROPYRIDOPYRAZINE DERIVATIVES AS RSV INHIBITORS” (Enanta Pharmaceuticals, Inc., priority 2020, published 2022).

System: Human RSV-A (“Long” strain)
Test: RSV in vitro cytoprotection assay in HEp-2 cells (ATPlite readout)
Assay type: cell-based
Conditions: human respiratory syncytial virus, 96 h; HEp-2 cells, genotype A “Long” strain RSV, 4-day incubation, ATPlite; read-out: Human RSV-A (“Long” strain) EC50
Description: RSV is a single stranded negative sense RNA virus that causes respiratory tract infections which can be dangerous to infants, the elderly, and immunosuppressed individuals. Currently there is no vaccine, and therapeutic options are both costly and of limited effectiveness. These approved treatments are Ribavirin, and Palivizumab/Synagis (a monoclonal antibody). RSV has two genotypes, A and B, which differ primarily in the structure of the virus' surface “G” attachment protein. Our current primary screen focusses on RSV-A and uses an in vitro cytoprotection assay where compounds are added in 2-fold dilutions to cells which are then subjected to fully replicative viral particles. Cell viability is measured several days later along with separate measurements of compound cytotoxicity. This report focuses on the results of our most recent screening of compounds.
HEp-2 cells, (originally derived from tumors grown in irradiated-cortisonised weanling rats that had been injected with epidermoid carcinoma tissue from a person's larynx, but later found to be indistinguishable from HeLa cells by PCR DNA analysis), were used for the culturing of genotype A, “Long” strain RSV. Flasks were inoculated with RSV and viral stocks were collected once cytopathic effect (CPE) was greater than 90%. Viral stocks in 25% sucrose media were snap frozen using liquid nitrogen to increase viral stability. Viral stock titers were quantified by tissue culture infectious dose 50% (TCID50) using 8,000 cells per well and 3-fold viral dilutions across a 96-well plate, cultured for 4 days.
Following extensive parameter testing, the final assay is run as follows: HEp-2 cells are seeded into the inner 60 wells of a 96-well plate at 8,000 cells per well in a volume of 50 μL using Growth Media (DMEM without phenol red, 1% L-Glut, 1% Penn/Strep, 1% nonessential amino acids, 10% FBS). 2-Fold serial dilutions of control and test compounds are added to the wells in duplicate in a total volume of 25 μL. Viral stock is then added to the wells in a volume of 25 μL, bringing the total volume of each well to 100 μL. Each 96-well plate has a control column of 6 wells with cells and virus but no compound (negative control, max CPE), a column with cells but no compound or virus (positive control, minimum CPE), and a column with no cells or virus or compound (background plate/reagent control). The control wells with cells but no virus are given an additional 25 uL of growth media containing an equal quantity of sucrose as those wells receiving the viral stock in order to keep consistent in media and volume conditions. The outer wells of the plate are filled with 125 μL of growth media to act as a thermal and evaporative moat around the test wells. Following a 4-day incubation period, the plates are read using ATPlite (50 uL added per well), which quantifies the amount of ATP (a measure of cell health) present in each well. Assay plates are read using the Envision luminometer. In parallel, cytotoxicity is examined on an additional 96-well plate treated in an identical manner, but substituting the 25 μL of viral stock for 25 μL of growth media. […] EC50 ranges are as follows: A<0.01 μM; B 0.01-0.05 μM; C>0.05 μM.

| Structure (SMILES) | EC50 [nM] |
| --- | --- |
| Cc1cnc(N2CC3(CCOCC3)C2)c(C(=O)Nc2ccc(C(=O)N3c4ccccc4N=C(c4ccc(C(=O)Nc5c(C)cccc5F)s4)[C@@H]3C)cc2)c1 [Example 2] | > 50 |
| Cc1cnc(N2CC3(CCOCC3)C2)c(C(=O)Nc2ccc(C(=O)N3c4ccccc4N=C(c4ccc(C(=O)NC5CC5)cc4)[C@@H]3C)cc2)c1 [Example 4] | > 50 |
| Cc1cnc(N2CC3(CCOCC3)C2)c(C(=O)Nc2ccc(C(=O)N3c4ccccc4N=C(c4ccc(C(=O)Nc5c(C)cccc5F)cc4)[C@@H]3C)cc2)c1 [Example 5] | > 50 |
| Cc1cnc(N2CC3(CCOCC3)C2)c(C(=O)Nc2ccc(C(=O)N3c4ccccc4N=C(c4ccc(C(=O)Nc5c(C)cccc5F)s4)[C@H]3C)cc2)c1 [Example 7] | 10 to 50 |
| Cc1cnc(N2CC3(CCOCC3)C2)c(C(=O)Nc2ccc(C(=O)N3c4ccccc4N=C(c4ccc(C(=O)NC56CC(C)(C5)C6)s4)[C@H]3C)cc2)c1 [Example 13] | < 10 |
| Cc1cnc(N2CC3(CCOCC3)C2)c(C(=O)Nc2ccc(C(=O)N3c4ccccc4N=C(c4ccc(C(=O)Nc5ncccc5F)s4)[C@H]3C)cc2)c1 [Example 14] | 10 to 50 |
| Cc1ccc(C(=O)Nc2ccc(C(=O)N3c4ccccc4N=C(c4ccc(C(=O)NC5CCC5)s4)[C@H]3C)cc2)c(N2CC3(CCOCC3)C2)n1 [Example 16] | < 10 |
| C[C@@H]1C(c2ccc(C(=O)NC3CC3)s2)=Nc2ccccc2N1C(=O)c1ccc(NC(=O)c2cc3c(nc2N2CC4(CCOCC4)C2)CCC3)cc1 [Example 17] | < 10 |
| C[C@@H]1C(c2ccc(C(=O)NC3CCC3)s2)=Nc2ccccc2N1C(=O)c1ccc(NC(=O)c2cc3c(nc2N2CC4(CCOCC4)C2)CCC3)cc1 [Example 18] | < 10 |
| C[C@@H]1C(c2ccc(C(=O)NC3CCC3)s2)=Nc2ccccc2N1C(=O)c1ccc(NC(=O)c2cc(C(F)(F)F)cnc2N2CC3(CCOCC3)C2)cc1 [Example 24] | 10 to 50 |
| Cc1cnc(N2CC3(CCOCC3)C2)c(C(=O)Nc2ccc(C(=O)N3c4ccccc4N=C(c4ccc(C(=O)NC5CC5)cc4)[C@H]3C)cc2)c1 [Example 25] | > 50 |
| Cc1cnc(N2CC3(CCOCC3)C2)c(C(=O)Nc2ccc(C(=O)N3c4ccccc4N=C(c4ccc(C(=O)Nc5c(C)cccc5F)cc4)[C@H]3C)cc2)c1 [Example 26] | > 50 |
| Cc1cnc(N2CC3(CCOCC3)C2)c(C(=O)Nc2ccc(C(=O)N3c4ccccc4N=C(c4ccc(C(=O)NC5CC5)s4)C3(C)C)cc2)c1 [Example 27] | > 50 |
| Cc1cnc(N2CC3(CCOCC3)C2)c(C(=O)Nc2ccc(C(=O)N3c4ccccc4N=C(c4ccc(C(=O)NC5CCC5)s4)C3(C)C)cc2)c1 [Example 28] | < 10 |
| Cc1cnc(N2CC3(CCOCC3)C2)c(C(=O)Nc2ccc(C(=O)N3c4cccnc4N=C(c4ccc(C(=O)NC5CCC5)s4)[C@H]3C)cc2)c1 [Example 29] | 10 to 50 |
| Cc1cnc(N2CC3(CCOCC3)C2)c(C(=O)Nc2ccc(C(=O)N3c4ncccc4N=C(c4ccc(C(=O)NC5CCC5)s4)[C@H]3C)cc2)c1 [Example 31] | 10 to 50 |

Second part, the compound after the results:

| EC50 [nM] | Structure (SMILES) |
| --- | --- |
| 10 to 50 | Cc1cnc(N2CC3(CCOCC3)C2)c(C(=O)Nc2ccc(C(=O)N3c4ccccc4N=C(c4ccc(C(=O)NC5CC5)s4)[C@@H]3C)cc2)c1 [Example 1] |
| > 50 | Cc1cnc(N2CC3(CCOCC3)C2)c(C(=O)Nc2ccc(C(=O)N3c4ccccc4N=C(c4ccc(C(=O)NC5CCC5)s4)[C@@H]3C)cc2)c1 [Example 3] |
| < 10 | Cc1cnc(N2CC3(CCOCC3)C2)c(C(=O)Nc2ccc(C(=O)N3c4ccccc4N=C(c4ccc(C(=O)NC5CC5)s4)[C@H]3C)cc2)c1 [Example 6] |
| < 10 | Cc1cnc(N2CC3(CCOCC3)C2)c(C(=O)Nc2ccc(C(=O)N3c4ccccc4N=C(c4ccc(C(=O)NC5(C)CC5)s4)[C@H]3C)cc2)c1 [Example 8] |
| < 10 | Cc1cnc(N2CC3(CCOCC3)C2)c(C(=O)Nc2ccc(C(=O)N3c4ccccc4N=C(c4ccc(C(=O)NC5CCC5)s4)[C@H]3C)cc2)c1 [Example 9] |
| 10 to 50 | Cc1cnc(N2CC3(CCOCC3)C2)c(C(=O)Nc2ccc(C(=O)N3c4ccccc4N=C(c4ccc(C(=O)NC5CC(F)(F)C5)s4)[C@H]3C)cc2)c1 [Example 10] |
| < 10 | Cc1cnc(N2CC3(CCOCC3)C2)c(C(=O)Nc2ccc(C(=O)N3c4ccccc4N=C(c4ccc(C(=O)NC5(C)CCC5)s4)[C@H]3C)cc2)c1 [Example 11] |
| < 10 | Cc1cnc(N2CC3(CCOCC3)C2)c(C(=O)Nc2ccc(C(=O)N3c4ccccc4N=C(c4ccc(C(=O)NC56CC(C5)C6)s4)[C@H]3C)cc2)c1 [Example 12] |
| < 10 | Cc1ccc(C(=O)Nc2ccc(C(=O)N3c4ccccc4N=C(c4ccc(C(=O)NC5CC5)s4)[C@H]3C)cc2)c(N2CC3(CCOCC3)C2)n1 [Example 15] |
| < 10 | C[C@@H]1C(c2ccc(C(=O)NC3CC3)s2)=Nc2ccccc2N1C(=O)c1ccc(NC(=O)c2cc(C3CC3)cnc2N2CC3(CCOCC3)C2)cc1 [Example 19] |
| < 10 | C[C@@H]1C(c2ccc(C(=O)NC3CCC3)s2)=Nc2ccccc2N1C(=O)c1ccc(NC(=O)c2cc(C3CC3)cnc2N2CC3(CCOCC3)C2)cc1 [Example 20] |
| < 10 | CCc1cnc(N2CC3(CCOCC3)C2)c(C(=O)Nc2ccc(C(=O)N3c4ccccc4N=C(c4ccc(C(=O)NC5CC5)s4)[C@H]3C)cc2)c1 [Example 21] |
| < 10 | CCc1cnc(N2CC3(CCOCC3)C2)c(C(=O)Nc2ccc(C(=O)N3c4ccccc4N=C(c4ccc(C(=O)NC5CCC5)s4)[C@H]3C)cc2)c1 [Example 22] |
| 10 to 50 | C[C@@H]1C(c2ccc(C(=O)NC3CC3)s2)=Nc2ccccc2N1C(=O)c1ccc(NC(=O)c2cc(C(F)(F)F)cnc2N2CC3(CCOCC3)C2)cc1 [Example 23] |
| > 50 | Cc1cnc(N2CC3(CCOCC3)C2)c(C(=O)Nc2ccc(C(=O)N3c4ncccc4N=C(c4ccc(C(=O)NC5CC5)s4)[C@H]3C)cc2)c1 [Example 30] |

Same assay, conditions: human respiratory syncytial virus, HEp-2

| Structure (SMILES) | EC50 [nM] |
| --- | --- |
| O=C(Nc1ccccc1F)N[C@H]1N=C(c2ccccc2)c2ccccc2NC1=O [RSV-604, reference compound] | ~2400 |
